{"source": "paper PMC4474554", "about": "(PLoS ONE, 2015)", "key": {"NCI-H1395": {"tested_on": "NCI-H1395", "test": "MTS assay, NCI-H1395"}, "NCI-H1819": {"tested_on": "NCI-H1819", "test": "MTS assay, NCI-H1819"}, "Pyk2": {"tested_on": "Pyk2", "parameters": "method as in earlier work", "details": "updated data; cited from earlier work"}, "Calu-3": {"tested_on": "Calu-3", "test": "MTS assay, Calu-3"}, "Ret (M918T)": {"tested_on": "Ret (M918T)", "parameters": "method as in earlier work", "details": "updated data; cited from earlier work"}, "Flt-3": {"tested_on": "Flt-3", "parameters": "method as in earlier work", "details": "updated data; cited from earlier work"}, "IGF-1R": {"tested_on": "IGF-1R", "parameters": "method as in earlier work", "details": "updated data; cited from earlier work"}, "SK-BR-3": {"tested_on": "SK-BR-3", "test": "MTS assay, SK-BR-3"}, "c-Met": {"tested_on": "c-Met", "details": "updated data; cited from earlier work"}, "c-Kit": {"tested_on": "c-Kit", "parameters": "method as in earlier work", "details": "updated data; cited from earlier work"}, "NCI-H1299": {"tested_on": "NCI-H1299", "test": "MTS assay, NCI-H1299"}, "HCC827": {"tested_on": "HCC827", "format": "cell-based", "experimental": "(§1) Drug sensitivity was determined by a modified MTS assay with CellTiter 96 AQueous One Solution Reagent (Promega, Madison, WI). Cells were generally seeded on 96-well plates at a density that would yield 80% confluence by the completion of the experiment, varying by each cell line from 3000 to 4000 per well. […] After that, MTS dye was added to each well. The cultures were incubated for another 1 hour at 37°C in a humidified atmosphere with 5% CO2. Optical densities of samples were measured at 490 nm using Immuno Mini NJ-2300 (Nalge Nunc International KK, Rochester, NY). Mean optical density at each drug concentration was calculated after discarding the highest and lowest values. […] IC50 values were expressed as mean and standard deviations. The assays were repeated until the standard deviation became less than the mean."}, "[1]": {"tested_on": "HEK-293T with mutant EGFR (L858R)", "format": "cell-based", "experimental": "as §1"}, "[2]": {"tested_on": "phospho-EGFR and downstream AKT, MAPK", "test": "Western blotting, EGFR, AKT and MAPK phosphorylation in NSCLC cell lines", "format": "cell-based", "experimental": "Next, they were washed out with cold PBS and lysed in 1 × cell lysis buffer [20 mM Tris-HCl (pH 7.5), 150 mM NaCl, 1 mM Na2EDTA, 1 mM EGTA, 1% Triton, 2.5 mM sodium pyrophosphate, 1 mM beta-glycerophosphate, 1 mM Na3VO4, 1 μg/ml leupeptin] (Cell signaling Technology) supplemented with Complete, Mini (Roche, Basel, Switzerland) to extract protein. After the protein concentration was measured, equal amounts of total protein (30 μg) were separated by SDS-PAGE and transferred to PVDF membranes. The proteins on membranes were incubated overnight at 4°C with the primary antibodies. The following secondary antibodies were used: goat antirabbit or antimouse IgG-conjugated horseradish peroxidase (HRP) (Santa Cruz Biotechnology, Santa Cruz, CA). To detect specific signals, the membranes were incubated by ECL plus Western Blotting Detection Reagents (Amersham Biosciences UK Limited, Buckinghamshire, UK)."}, "[3]": {"test": "Body weight / side effects in xenograft mice", "format": "in vivo, BALB/c-nu/nu female nude mice", "details": "14 days, nude mice with xenografts", "experimental": "In this experiment, we used BALB/c-nu/nu female nude mice at 4–6 weeks of age that were purchased from Charles River Laboratories Japan, Inc (Yokohama, Japan). They were maintained under specific-pathogen-free conditions in accordance with the guidelines of the Animal Care and Use Committee at Okayama University. […] Every three days, body weight of the mice and the major axis and minor axis of each tumor were measured and calculated tumor volume using the following formula; (major axis) × (minor axis)^2 × 1/2 [37, 38]. For the 14 days, tumor volume, tumor growth rate and the body weight were analyzed as an average of the each group."}, "MKN45": {"tested_on": "MKN45", "test": "MTS assay, MKN45"}, "KDR": {"tested_on": "KDR", "parameters": "method as in earlier work", "details": "updated data; cited from earlier work"}, "NCI-H1666": {"tested_on": "NCI-H1666", "test": "MTS assay, NCI-H1666"}, "NCI-H1993": {"tested_on": "NCI-H1993", "test": "MTS assay, NCI-H1993"}, "[4]": {"details": "EGFR-mutant cell lines PC-9, HCC827, NCI-H1975, RPC-9"}}, "note": "Where “and” joins values, the source holds several entries; their conditions need not be identical. Identical values can stand only once. Like-named read-outs stand apart in the source and are kept apart here."}
{"smiles": "CNC(=O)c1ccccc1Nc1nc(Nc2ccc(N3CCOCC3)cc2OC)ncc1Cl", "note": "[TAE226]", "values": [{"measurement": "IC50", "setting": "NCI-H1395; read-out: IC50 (μM) (mean ± SD), NCI-H1395, BRAF Exon 11 (G469A), MTS, TAE226 48 hours", "value": "[…]"}, {"measurement": "IC50", "setting": "NCI-H1395; read-out: each IC50, NCI-H1395, independent MTS assays", "value": "[…]"}, {"measurement": "IC50", "setting": "NCI-H1395; read-out: mean IC50, NCI-H1395, mean of independent MTS assays", "value": "[…]"}, {"measurement": "IC50", "setting": "NCI-H1819; read-out: IC50 (μM) (mean ± SD), NCI-H1819, HER2 amplification, MTS, TAE226 48 hours, gefitinib 72 hours", "value": "3.8 ± 0.4", "unit": "µM"}, {"measurement": "IC50", "setting": "NCI-H1819; read-out: each IC50, NCI-H1819, independent MTS assays", "value": "4 µM and 3.2 µM and 4.1 µM"}, {"measurement": "IC50", "setting": "Pyk2", "value": 40, "unit": "nM"}, {"measurement": "IC50", "setting": "Calu-3; read-out: IC50 (μM) (mean ± SD), Calu-3, HER2 amplification, MTS, TAE226 48 hours, gefitinib 72 hours", "value": "4.1 ± 0.37", "unit": "µM"}, {"measurement": "IC50", "setting": "Calu-3; read-out: each IC50, Calu-3, independent MTS assays", "value": "4.5 µM and 3.8 µM"}, {"measurement": "IC50", "setting": "Ret (M918T)", "value": "[…]"}, {"measurement": "IC50", "setting": "Flt-3", "value": "[…]"}, {"measurement": "IC50", "setting": "IGF-1R", "value": "[…]"}, {"measurement": "IC50", "setting": "SK-BR-3; read-out: IC50 (μM) (mean ± SD), SK-BR-3 (breast cancer), HER2 amplification, MTS, TAE226 48 hours", "value": "35.1 ± 0.53", "unit": "µM"}, {"measurement": "IC50", "setting": "SK-BR-3; read-out: each IC50, SK-BR-3, independent MTS assays", "value": "34.6 µM and 35.6 µM"}, {"measurement": "IC50", "setting": "c-Met", "value": 160, "unit": "nM"}, {"measurement": "IC50", "setting": "c-Kit", "value": "> 10000", "unit": "nM"}, {"measurement": "IC50", "setting": "NCI-H1299; read-out: IC50 (μM) (mean ± SD), NCI-H1299, no alterations, MTS, TAE226 48 hours, gefitinib 72 hours", "value": "2.8 ± 0.26", "unit": "µM"}, {"measurement": "IC50", "setting": "NCI-H1299; read-out: each IC50, NCI-H1299, independent MTS assays", "value": "3.1 µM and 3 µM and 2.7 µM and 2.4 µM"}, {"measurement": "IC50", "setting": "HCC827; HCC827, EGFR Exon 19 del (E746-A750), MTS, TAE226 48 hours, gefitinib 72 hours, read-out: IC50 (μM) (mean ± SD)", "value": "0.086 ± 0.01", "unit": "µM"}, {"measurement": "IC50", "setting": "HCC827; HCC827, independent MTS assays, read-out: each IC50", "value": "0.061 µM and 0.095 µM and 0.09 µM and 0.1 µM"}, {"measurement": "IC50", "setting": "[1]; HEK293T-L858R, independent MTS assays, read-out: each IC50", "value": 0.43, "unit": "µM"}, {"measurement": "IC50", "setting": "[1]; Transfected HEK-293T, mutant EGFR (L858R), MTS, TAE226 48 hours, gefitinib 72 hours, read-out: IC50 (μM) (mean ± SD)", "value": "0.41 ± 0.06", "unit": "µM"}, {"measurement": "phosphorylation of EGFR", "setting": "[2]; [4]", "value": "predominantly inhibited"}, {"measurement": "phosphorylations of AKT and MAPK", "setting": "[2]; [4]", "value": "inhibited"}, {"measurement": "phosphorylations of EGFR, AKT, and MAPK", "setting": "[2]; cell lines with wild-type EGFR (NCI-H1299 and NCI-H1819)", "value": "not inhibited"}, {"measurement": "obvious side effects, including the loss of body weight", "setting": "[3]; 30mg/kg or 60mg/kg oral", "value": "did not occur"}, {"measurement": "body weight", "setting": "[3]; 90 mg/kg oral", "value": "loss of body weight was observed"}, {"measurement": "IC50", "setting": "MKN45; read-out: IC50 (μM) (mean ± SD), MKN45 (gastric cancer), MET amplification, MTS, TAE226 48 hours", "value": "1.1 ± 0.06", "unit": "µM"}, {"measurement": "IC50", "setting": "MKN45; read-out: each IC50, MKN45, independent MTS assays", "value": "1.04 µM and 1.16 µM"}, {"measurement": "IC50", "setting": "KDR", "value": "[…]"}, {"measurement": "IC50", "setting": "NCI-H1666; read-out: IC50 (μM) (mean ± SD), NCI-H1666, BRAF Exon 11 (G466V), MTS, TAE226 48 hours, gefitinib 72 hours", "value": "0.42 ± 0.08", "unit": "µM"}, {"measurement": "IC50", "setting": "NCI-H1666; read-out: each IC50, NCI-H1666, independent MTS assays", "value": "0.5 µM and 0.34 µM"}, {"measurement": "IC50", "setting": "NCI-H1993; read-out: IC50 (μM) (mean ± SD), NCI-H1993, MET amplification, MTS, TAE226 48 hours, gefitinib 72 hours", "value": "0.89 ± 0.001", "unit": "µM"}, {"measurement": "IC50", "setting": "NCI-H1993; read-out: each IC50, NCI-H1993, independent MTS assays", "value": 0.89, "unit": "µM"}, {"measurement": "IC50", "setting": "NCI-H1993; read-out: mean IC50, NCI-H1993, mean of independent MTS assays", "value": 0.89, "unit": "µM"}]}
